Test results as given in US8313914B2, “Compositions and methods for modulation of cell migration” (Angstrom Pharmaceuticals, Inc., priority 2009, dated 2012).
Entries after “also recorded” stand apart in the source; their conditions may differ. No end group written: not given here.

Assays:
[1] = target: T1, CD44 (Homo sapiens, UniProt P16070); test: Anti-CD44 (DF1485) immunoblot analysis of Å6CbioXL polypeptides and Å6-BSA; type: binding; details: SKOV3 lysates
T1 construct: endogenous in cells; host or cells: SKOV3
Procedure: In FIG. 7 30 μg aliquots of Å6CbioXL and control (ConXL) SKOV3 lysates, as well as 2 μg aliquots of Å6-crosslinked BSA (Å6-BSA) and BSA, were subjected to immunoblot analysis using the DF1485 anti-CD44 antibody (Santa Cruz Biotech). The DF1485 blots were stained with HRP-conjugated sheep anti-Mouse IgG; heavy and light chain specific (GE Health Sciences). The rabbit anti-Å6 blot was stained with HRP-conjugated donkey anti-rabbit IgG; heavy and light chain specific (Jackson Immunoresearch). Stained bands were visualized by the ECL-plus chemiluminescence reagent (GE Health Sciences) and exposure to Hyperfilm ECL film (GE). In panel 1, anti-CD44 produced bands in the Å6CbioXL (A lane) and control (C) lane. […] In addition, 2 μg aliquots of the Å6CbioXL and ConXL lysates were concurrently blotted with HRP-streptavidin to identify polypeptides labeled with Å6Cbio, and shown in panel 2. 2 μg of Å6-BSA and BSA were also blotted with Rb anti-Å6 to confirm the presence of Å6 on the Å6-BSA, as shown in the third panel of FIG. 7.

[2] = tested on: SKOV3 cells; test: Boyden chamber migration of SKOV3 cells induced by NIH3T3-CM/VEGF; type: cell-based; details: for Effective concentration for cell migration inhibition, lower end / Effective concentration for cell migration inhibition, upper end: SKOV3 migration
Procedure: (§1) A2780 (FIG. 10a) and SKOV3 (FIG. 10b) cells were incubated with the indicated concentrations of Å6 peptide for 30 min at 37° C. Aliquots representing 6,000 cells were placed on quadruplicate, CnI-coated filters (8 μm pores) in Boyden chambers and the cells allowed to migrate overnight in response to 10 ng/ml VEGF in NIH3T3-conditioned media containing the indicated concentrations of Å6. Upon completion of migration, the apical surfaces of the membranes were wiped clean and the migrating cells on the basal surface were stained with Geimsa stain and the cells present in representative fields of the membranes counted. Data represent the averages+/−standard deviations obtained from the replicate filters. […] This provides further confirmation that CD44 is the target for the Å6 peptide.
SKOV3 cells are harvested by trypsinization and washed once with RPMI-0.5% BSA. Next, the cells are re-suspended in RPMI+0.5% BSA@6E4/mL (6000 cells/100 μL). The peptide is pre-treated with 500 μL of cells added to 500 μL peptide NASAPPEE (SEQ ID NO: 3) (2× concentration, final conc, at 100, 10, 1, 0.1, 0.01, 0.001 uM) and the mixture incubated 30 minutes at 37° C., under 5% CO2. The Boyden chamber is assembled by: Placing in the bottom chambers: 220 μL of serum/BSA free DMEM or NIH3T3CM+10 ng/ml VEGF or NIH3T3CM+10 ng/ml VEGF+peptide. Place 8 μm filters on the top of the bottom chambers. The 8 μm filters are coated with 1 mg/ml collagen I at 4° C. overnight, washed with PBS twice, air dry before use. Add 200 μL of cells with or without peptide pretreatment to the top of Boyden chamber. Note that the peptide is in both top and bottom chambers. Cells migrate overnight at 37° C., under 5% CO2 in incubator. Next, Boyden chambers are disassembled the and filters collected. The cells on the filters after collection are treated with −20° C. methanol for 3 minutes at room temperature and stained with 30% Geimsa for 7 minutes at room temperature, and washed with water twice. The filters are mounted on slides, air dried and the cells counted.
Cell numbers were obtained by counting the cells in four fields of filters using a 40× objective. The cells migrating into the bottom chambers were also counted as follows: a) 200 μL fluid in the bottom chamber was transferred to a well of 96-well plate; b) The plate was centrifuged at 1200 rpm for 5 minutes; c) 180 μL of supernatant was removed; d) The cell pellet was resuspended with the remaining 20 μL fluid and the cells counted using a hemocytometer. […] This compares favorably to the Å6 peptide which is effective between 5 μM and 100 nM.

[3] = target: T1, CD44; test: Immunoprecipitation of Å6Cbio-crosslinked SKOV3 polypeptides with anti-CD44, HRP-SA blotting; type: binding; details: SKOV3 cells, 100 μM Å6Cbiotin, BS3 crosslinking, anti-CD44 DF1485
Procedure: In FIGS. 1 and 2 SKOV3 cells were incubated with or without 100 μM Å6Cbiotin (Å6CbioXL and ConXL, respectively) for 30 min at 4° C. The cells were then crosslinked with 5 mM bis(sulfosuccinimidyl) suberate (Sulfo-DSS or BS^3) for 30 min at 4° C. and Triton X-100 lysates generated. The lysates were pre-cleared by incubating with Protein A-agarose for 2 hr at room temperature. Aliquots representing 100 μg of the cleared lysates were then incubated overnight at room temperature with 20 μL of Protein A-agarose plus 2 μg of anti-Tenascin R (TnR; E-18, Santa Cruz Biotech.), anti-Tenascin C (TnC; 300-3, Santa Cruz Biotech.), anti-CD44 (DF1485, Santa Cruz Biotech.), anti-Plexin-A1 (P1 A1; H-60, Santa Cruz Biotech.) or murine IgG1 (Sigma Chem. Co.). After washing 5 times with lysis buffer, the immunoprecipitated polypeptides were eluted from the Protein A-agarose by boiling in SDS-PAGE sample buffer. The eluted material and 2 μg aliquots of the starting material were then subjected to SDS-PAGE, transfer to PVDF membranes and blotting with chemiluminescent horseradish peroxidase (HRP)-conjugated streptavidin (HRP-SA).
In FIG. 3 SKOV3 cells were incubated with or without 100 μM Å6Cbiotin (Å6CbioXL and control, respectively) for 30 minutes at 4° C. The cells were then crosslinked with 5 mM BS3 for 30 min at 4° C. […]

[4] = target: T2, CD44 on SKOV3 cells (Homo sapiens, UniProt P16070); test: FACs analysis of anti-CD44 (DF1485) binding to SKOV3 cells in the presence of Å6; type: cell-based; details: pre-incubation with Å6 on ice 10 or 30 min, FACS MnI
T2 construct: endogenous in cells; host or cells: SKOV3
Procedure: In FIG. 4 SKOV3 cells were detached from their culture flasks by brief trypsinization, washed twice with DPBS and incubated on ice with the indicated concentrations of Å6 for 10 min (exp. 1) or 30 min (exp. 2). Anti-CD44 (DF1485; Santa Cruz Biotech.) or its isotype control were then added to final concentrations of 1 μg/ml (exp. 1) or 1 and 0.5 μg/ml (exp. 2) and the cells incubated for 1 hr on ice. The cells were washed once and incubated with FITC-conjugated donkey anti-mouse IgG (H+L) for 30 minutes on ice and then subjected to FACS analysis with a Beckman Coulter Epics XL-MCL cytofluorimeter. Data analysis was performed using the Coulter Epics software. Note: Data are presented as mean fluorescence intensities (MnI) obtained with the MnI of the negative control in each experiment adjusted to <0.5 during data collection. […] Similar CD44 expression in ovarian cancer lines using different anti-CD44 antibodies is assessed in FIG. 5, for which the MnI values are summarized in FIG. 6.

[5] = tested on: A2780 cells; test: Boyden chamber chemotaxis of A2780 cells; type: cell-based; details: 10 ng/ml VEGF in NIH3T3-conditioned media, overnight
Procedure: as §1

[6] = tested on: SKOV3 cells; test: Adhesion of SKOV3 cells to hyaluronic acid; type: cell-based
Procedure: In FIG. 11 SKOV3 cells were cultured overnight with or without 10 μM Å6 or 100 ng/ml PMA. The cells were then detached, washed and loaded with 20 μg/ml CFDA-SE for 30 min at 37° C. After washing, the cells were resuspended in PBS containing 10% FCS and triplicate aliquots representing 100,000 cells incubated for 30 min at room temperature with no additions, 1 or 10 uM Å6 or with 20 ng/ml IM7, a blocking anti-CD44 rat monoclonal antibody. The cells were then placed into microtiter wells that had been coated with 50 μl, of 1 mg/mL HA overnight and blocked for 30 min with 10% FCS. The cells were allowed to adhere at room temperature for 30 minutes after which, the wells were decanted and washed 3 times. The fluorescence in each well was assessed (excit./emiss.: 460/536 nm) and the mean fluorescence values (+/standard deviation) of the triplicate determinations calculated. […] The control experiment with IM7 (graphs on far right) indicates inhibition of SKOV3 binding to HA in the presence of this anti-CD44, which indicates a role for CD44 in binding HA.

[7] = tested on: A2780 cells; test: Adhesion of A2780 cells to hyaluronic acid; type: cell-based; details: immobilized HA; 1 or 10 μM Å6
Procedure: In FIG. 12 A2780 cells were cultured overnight with or without 10 μM Å6 or 100 ng/ml PMA. The cells were then detached, washed and loaded with 20 μg/ml CFDA-SE for 30 min at 37° C. After washing, the cells were resuspended in PBS containing 10% FCS and triplicate aliquots representing 100,000 cells incubated for 30 min at room temperature with no additions, 1 or 10 μM Å6 or with 20 ng/ml IM7, a blocking anti-CD44 rat monoclonal antibody. The cells were then placed into microtiter wells that had been coated with 50 ul of 1 mg/ml HA overnight and blocked for 30 min with 10% FCS. The cells were allowed to adhere at room temperature for 30 min after which, the wells were decanted and washed 3 times. The fluorescence in each well was assessed (excit./emiss.: 460/536 nm) and the mean fluorescence values (+/standard deviation) of the triplicate determinations calculated.

[8] = target: T1, CD44; test: Dimerization of CD44 in SKOV3 cells, anti-CD44 B-F24 immunoblot; type: cell-based; details: SKOV3 cultured 20 hr with 1 or 10 μM Å6, non-reducing
Procedure: In FIG. 13 SKOV3 cells were cultured for 20 hr with no additions, 1 or 10 μM Å6 or 100 ng/ml PMA. Triton X-100 lysates were generated and further solubilized in SDS-PAGE sample buffer under non-reducing conditions. Aliquots representing 7.5 μg of cellular protein were subjected to SDS-PAGE followed by immunoblot analysis with the anti-CD44 murine monoclonal B-F24. The presence of stained higher molecular weight bands can be indicative of CD44 dimers and/or oligomers.

[9] = target: T2, CD44 on SKOV3 cells; test: FACs analysis of IM7 binding to SKOV3 cells in the presence of Å6; type: cell-based; details: IM7 1 μg/ml, 4° C.
Procedure: In FIGS. 14a and 14b SKOV3 cells were incubated with the indicated concentrations of Å6 for 30 min at 4° C. IM7 (1 μg/ml) was then added and allowed to bind for 30 min at 4° C., after which the cells were washed and incubated with FITC-donkey anti-rat IgG for 30 min at 4° C. The cells were washed once and then subjected to FACs analysis.

[10] = tested on: B16 melanoma cells; test: B16 melanoma lung metastasis model; type: in vivo, C57BL/6J mice; details: about 1×10^5 melanoma cells injected in the tail vein
Procedure: The B16 melanoma metastasis is well known in the art. A typical protocol for assessing the inhibitory effect of a compound on metastasis is described below. Such a protocol was followed to assess the effect of Å6 on metastasis.
Briefly, B16 melanoma cells can be cultured in RPMI-1640 with 10% fetal bovine serum at 37° C. in an atmosphere of 95% air and 5% CO2. C57BL/6J mice of six to eight weeks can be purchased from commercial suppliers. For the lung metastasis model, about 1×10^5 melanoma cells suspended in 100 μl saline were injected in the tail vein in the presence or absence of Å6. Administration of the Å6 peptide inhibited the lung metastasis by 50% or more.

T1 sequence (P16070 21-742): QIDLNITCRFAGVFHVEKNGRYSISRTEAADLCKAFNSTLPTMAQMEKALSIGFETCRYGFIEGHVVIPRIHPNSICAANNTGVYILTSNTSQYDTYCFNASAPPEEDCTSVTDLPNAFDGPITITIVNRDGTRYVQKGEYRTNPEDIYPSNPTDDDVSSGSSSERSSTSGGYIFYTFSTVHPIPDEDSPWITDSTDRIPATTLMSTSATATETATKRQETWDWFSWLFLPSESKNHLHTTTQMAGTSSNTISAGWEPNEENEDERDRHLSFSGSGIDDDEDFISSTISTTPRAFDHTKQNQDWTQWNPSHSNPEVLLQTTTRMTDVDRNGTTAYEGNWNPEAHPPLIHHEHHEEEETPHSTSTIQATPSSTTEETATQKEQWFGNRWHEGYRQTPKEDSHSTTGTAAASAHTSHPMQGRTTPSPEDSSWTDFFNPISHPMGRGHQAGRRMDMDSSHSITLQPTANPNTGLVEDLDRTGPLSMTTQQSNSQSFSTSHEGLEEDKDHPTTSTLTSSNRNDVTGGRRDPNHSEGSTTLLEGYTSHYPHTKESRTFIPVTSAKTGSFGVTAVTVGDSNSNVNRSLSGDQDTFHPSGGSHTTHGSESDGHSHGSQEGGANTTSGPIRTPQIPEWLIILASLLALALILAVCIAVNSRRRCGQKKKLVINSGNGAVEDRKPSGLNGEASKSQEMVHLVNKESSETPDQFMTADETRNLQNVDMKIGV
T2 sequence (P16070 21-742): as above

Å6CbioXL: SKOV3 cells incubated with 100 μM Å6Cbiotin and crosslinked with BS3; lysate polypeptides labeled with Å6Cbio (KPSSPPEE; also: biotin label (Cbio) at an unstated position, BS3 crosslinked to cell polypeptides)
Effect on binding of anti-CD44 to CD44 (band intensity) [1]: reduces the binding of anti-CD44 to CD44

NASAPPEE
Effective concentration for cell migration inhibition, lower end [2]: 1 nM
Effective concentration for cell migration inhibition, upper end [2]: 100 µM

Ac-KPSSPPEE-Am (Ac-KPSSPPEE-NH2) [Å6]
Target identified by immunoprecipitation of crosslinked biotinylated peptide [3]: targets CD44; also recorded: CD44 as the target
Effect on binding of DF1485 anti-CD44 to SKOV3 cells [4]: inhibits the binding of DF1485 anti-CD44 to SKOV3 cells
Effect on migration of A2780 cells [5]: essentially unaffected
Effect on migration of SKOV3 cells ([2]; 10 ng/ml VEGF in NIH3T3-conditioned media, overnight): strong inhibition
Effective concentration for cell migration inhibition, lower end [2]: 100 nM
Effective concentration for cell migration inhibition, upper end [2]: 5 µM
Effect of a 10-fold increase in peptide concentration on SKOV3 binding to HA ([6]; 1 vs 10 μM Å6): little effect
Effect on SKOV3 binding to HA ([6]; immobilized HA, 1 or 10 μM Å6, 20 ng/ml IM7): enhanced
Effect on A2780 binding to HA [7]: does not substantially modulate
Formation of higher molecular weight CD44 bands (dimers/oligomers) [8]: higher molecular weight bands are formed
Effect on IM7 antibody binding to SKOV3 cells [9]: increase in antibody binding with increasing concentration
Inhibition of lung metastasis [10]: ≥ 50%
